This test deals with E. coli DSA 443 ESBL. The test can be described thus: Murine urinary tract infection (UTI) model. Format: in vivo, E. coli in OF-1 mice. The note with it: for Day 3 Bladder, Mean Diff. Vehicle vs. Meropenem 40 mg/kg / Day 3 Urine, Mean Diff. Vehicle vs. Meropenem 40 mg/kg: Dunnett's multiple comparisons test; for Day 3 Urine, Mean 2 (group mean) / Mean Diff., Vehicle vs. treated / Mean 2 (group mean bacterial count): Meropenem 40 mg/kg; for Day 3 Urine, Mean 2 (group mean): n2 = 8; for Mean Diff., Vehicle vs. treated / Mean 2 (group mean bacterial count): UTI model, Day 3 Kidneys.

Molecules are shown by their SMILES.

One molecule from paper PMC7311426, “An amphipathic peptide with antibiotic activity against multidrug-resistant Gram-negative bacteria” (Nature Communications, 2020) can be followed below.

On to `C[C@@H](O)[C@H]1C(=O)N2C(C(=O)O)=C(S[C@@H]3CN[C@H](C(=O)N(C)C)C3)[C@H](C)[C@H]12` [Meropenem, meropenem, reference compound], for which the “Day 3 Bladder, Mean Diff. Vehicle vs. Meropenem 40 mg/kg” value (Arenicin-3 study) is 2.654; the “Day 3 Bladder, Mean Diff. Vehicle vs. Meropenem 40 mg/kg” value (NZ17143 study) was 2.624; the “Day 3 Bladder, Mean Diff. Vehicle vs. Meropenem 40 mg/kg” value (NZ17211 study) is given as 4.176. Also, the “Day 3 Urine, Mean Diff. Vehicle vs. Meropenem 40 mg/kg” value is listed as 5.07 (Arenicin-3 study), 4.004 (NZ17143 study) and 5.546 (NZ17211 study). Also, the “DAY 3 BLADDER, Mean” value (ESBL E. coli DSA 443, Meropenem 40 mg kg-1, bladder, day 3, Prism column statistics, mean of n = 12) came out at 3.523. Moreover, the “Day 3 Urine, Mean 2 (group mean)” value (Arenicin-3 study) was 1.314; the “Day 3 Urine, Mean 2 (group mean)” value (NZ17143 study) turned out to be 1.812; the “Day 3 Urine, Mean 2 (group mean)” value (NZ17211 study) was found to be 1.325. Moreover, the “Mean Diff., Vehicle vs. treated” value was 0.4699 (Arenicin-3 experiment), 0.6355 (NZ17143 experiment) and 0.1396 (NZ17211 experiment). Moreover, the “Mean 2 (group mean bacterial count)” value is, setting by setting: (comparator arm of Arenicin-3 experiment) 2.023; (comparator arm of NZ17143 experiment) 1.446; (comparator arm of NZ17211 experiment) 2.631.
